Literature values, collected in PubChem BioAssay AID1259409 (Chemical Carcinogenesis Research Information System (CCRIS), 2018).

System: rodent chemically induced tumor inhibition, incidence and multiplicity
Experiment: CCRIS tumor inhibitor studies

## CC(=O)Oc1ccccc1C(=O)O
Carcinogen: AZOXYMETHANE, 25843-45-2, Dose [Inhibitor]: 0, 250 PPM IN DIET FOR 34 WK BEGINNING 1 WK POST LAST CARCINOGEN DOSE (STUDY DURATION: 49 WK), Route [Inhibitor]: ORAL, Species: RAT, Strain/Sex: F344/MALE, Target Tissue: Type of Lesion: COLON: ADENOCARCINOMA, Dose [Carcinogen]: 12 MG/KG BW IN 0.9% SALINE TWICE, Promoter: CHOLIC ACID, 81-25-4
  tumour outcome (control, treated, inhibition, significance): 26%, 19%, 27%, not significant
Carcinogen: AZOXYMETHANE, 25843-45-2, Dose [Inhibitor]: 0, 250 PPM IN DIET FOR 34 WK BEGINNING 1 WK POST LAST CARCINOGEN DOSE (STUDY DURATION: 49 WK), Route [Inhibitor]: ORAL, Species: RAT, Strain/Sex: F344/MALE, Target Tissue: Type of Lesion: COLON: ADENOMA, Dose [Carcinogen]: 12 MG/KG BW IN 0.9% SALINE TWICE, Promoter: CHOLIC ACID, 81-25-4
  tumour outcome (control, treated, inhibition, significance): 81%, 77%, 5%, not significant
Carcinogen: AZOXYMETHANE, 25843-45-2, Dose [Inhibitor]: 0, 250 PPM IN DIET FOR 34 WK BEGINNING 1 WK POST LAST CARCINOGEN DOSE (STUDY DURATION: 49 WK), Route [Inhibitor]: ORAL, Species: RAT, Strain/Sex: F344/MALE, Target Tissue: Type of Lesion: SMALL INTESTINE: ADENOCARCINOMA, Dose [Carcinogen]: 12 MG/KG BW IN 0.9% SALINE TWICE, Promoter: CHOLIC ACID, 81-25-4
  tumour outcome (control, treated, inhibition, significance): 23%, 23%, 0%, not significant
Carcinogen: AZOXYMETHANE, 25843-45-2, Dose [Inhibitor]: 0, 250 PPM IN DIET FOR 34 WK BEGINNING 1 WK POST LAST CARCINOGEN DOSE (STUDY DURATION: 49 WK), Route [Inhibitor]: ORAL, Species: RAT, Strain/Sex: F344/MALE, Target Tissue: Type of Lesion: SMALL INTESTINE: ADENOMA, Dose [Carcinogen]: 12 MG/KG BW IN 0.9% SALINE TWICE, Promoter: CHOLIC ACID, 81-25-4
  tumour outcome (control, treated, inhibition, significance): 17%, 23%, -35%, not significant
Carcinogen: AZOXYMETHANE, 25843-45-2, Dose [Inhibitor]: 0, 400 PPM IN DIET BEGINNING 2 WK PRIOR TO CARCINOGEN TREATMENT AND CONTINUING FOR 52 WK (STUDY DURATION: 54 WK), Route [Inhibitor]: ORAL, Species: RAT, Strain/Sex: F344/MALE, Target Tissue: Type of Lesion: COLON: ADENOCARCINOMA, Dose [Carcinogen]: 15 MG/KG BW 1/WK FOR 2 WK, Promoter: NONE USED
  tumour outcome (control, treated, inhibition, significance): 78%, 47%, 40%, p<0.01
Carcinogen: DIMETHYLHYDRAZINE HYDROCHLORIDE, 306-37-6, Dose [Inhibitor]: 0, 5 MG/KG 1/D 5D/WK BY GAVAGE AND SAME DOSE IN DIET 2 D/WK FOR 18 WK (STUDY DURATION: 18 WK), Route [Inhibitor]: GAVAGE, ORAL, Species: RAT, Strain/Sex: WISTAR/MALE, Target Tissue: Type of Lesion: COLON: TUMOR, Dose [Carcinogen]: 30 MG/KG/WK FOR 18 WK, Promoter: NONE USED
  tumour outcome (control, treated, inhibition, significance): 100%, 100%, 0%, not significant
Carcinogen: DIMETHYLHYDRAZINE HYDROCHLORIDE, 306-37-6, Dose [Inhibitor]: 0, 30 MG/KG 1/D 5 D/WK BY GAVAGE AND THE SAME DOSE IN DIET 2 D/WK FOR 18 WK (STUDY DURATION: 18 WK), Route [Inhibitor]: GAVAGE, ORAL, Species: RAT, Strain/Sex: WISTAR/MALE, Target Tissue: Type of Lesion: COLON: TUMOR, Dose [Carcinogen]: 30 MG/KG/WK FOR 18 WK, Promoter: NONE USED
  tumour outcome (control, treated, inhibition, significance): 100%, 50%, 50%, p<0.03
Carcinogen: DIMETHYLHYDRAZINE HYDROCHLORIDE, 306-37-6, Dose [Inhibitor]: 0, 60 MG/KG 1/D 5 D/WK BY GAVAGE AND THE SAME DOSE IN DIET 2 D/WK FOR 18 WK (STUDY DURATION: 18 WK), Route [Inhibitor]: GAVAGE, ORAL, Species: RAT, Strain/Sex: WISTAR/MALE, Target Tissue: Type of Lesion: COLON: TUMOR, Dose [Carcinogen]: 30 MG/KG/WK FOR 18 WK, Promoter: NONE USED
  tumour outcome (control, treated, inhibition, significance): 100%, 25%, 75%, p<0.01
Carcinogen: N-BUTYL-(4-HYDROXYBUTYL)NITROSAMINE, 3817-11-6, Dose [Inhibitor]: 0, 1 G/KG IN DIET FROM WK 1 THROUGH WK 20 OF STUDY, Route [Inhibitor]: ORAL, Species: RAT, Strain/Sex: WISTAR/MALE, Target Tissue: Type of Lesion: BLADDER: TUMOR, Dose [Carcinogen]: 0.05% IN DRINKING WATER FROM WK 2 THROUGH WK 10 OF STUDY (STUDY DURATION: 32 WK), Promoter: NONE USED
  tumour outcome (control, treated, inhibition, significance): 8/29 (28%), 1/29 (3%), 89%, p<0.05
Carcinogen: N-BUTYL-N-(4-HYDROXYBUTYL)NITROSAMINE, 3817-11-6, Dose [Inhibitor]: 0, 400 MG/KG DIET FOR 24 WK BEGINNING 1 WK PRIOR TO CARCINOGEN TREATMENT (STUDY DURATION: 24 WK), Route [Inhibitor]: ORAL, Species: MOUSE, Strain/Sex: BDF/MALE, Target Tissue: Type of Lesion: URINARY BLADDER: TRANSITIONAL CELL CARCINOMA, Dose [Carcinogen]: 7.5 MG 1/WK FOR 8 WK, Promoter: NONE USED
  tumour outcome (control, treated, inhibition, significance): 22/75 (29%), 21/74 (28%), 3%, not significant
Carcinogen: N-BUTYL-N-(4-HYDROXYBUTYL)NITROSAMINE, 3817-11-6, Dose [Inhibitor]: 0, 800 MG/KG DIET FOR 24 WK BEGINNING 1 WK PRIOR TO CARCINOGEN TREATMENT (STUDY DURATION: 24 WK), Route [Inhibitor]: ORAL, Species: MOUSE, Strain/Sex: BDF/MALE, Target Tissue: Type of Lesion: URINARY BLADDER: TRANSITIONAL CELL CARCINOMA, Dose [Carcinogen]: 7.5 MG 1/WK FOR 8 WK, Promoter: NONE USED
  tumour outcome (control, treated, inhibition, significance): 22/75 (29%), 22/73 (30%), -3%, not significant
Carcinogen: N-METHYL-N'-NITRO-N-NITROSOGUANIDINE, 70-25-7, Dose [Inhibitor]: FOLLOWING 8 WK CARCINOGEN/NACL REGIMEN, RATS FED DIETS SUPPLEMENTED WITH 1% ASPIRIN FOR 32 WK (STUDY DURATION: 40 WK), Route [Inhibitor]: ORAL, Species: RAT, Strain/Sex: WISTAR/MALE, Target Tissue: Type of Lesion: DUODENUM: ADENOCARCINOMA, Dose [Carcinogen]: 100 MG/L IN DRINKING WATER FOR 8 WK, AND SIMULTANEOUSLY FED DIET SUPPLEMENTED WITH 10% NACL, Promoter: SODIUM CHLORIDE, 7647-14-5
  tumour outcome (control, treated, inhibition, significance): 3/39 (8%), 1/20 (5%), 38%, not significant
Carcinogen: N-METHYL-N'-NITRO-N-NITROSOGUANIDINE, 70-25-7, Dose [Inhibitor]: FOLLOWING 8 WK CARCINOGEN/NACL REGIMEN, RATS FED DIETS SUPPLEMENTED WITH 1% ASPIRIN FOR 32 WK (STUDY DURATION: 40 WK), Route [Inhibitor]: ORAL, Species: RAT, Strain/Sex: WISTAR/MALE, Target Tissue: Type of Lesion: GLANDULAR STOMACH: ADENOCARCINOMA, Dose [Carcinogen]: 100 MG/L IN DRINKING WATER FOR 8 WK, AND SIMULTANEOUSLY FED DIET SUPPLEMENTED WITH 10% NACL, Promoter: SODIUM CHLORIDE, 7647-14-5
  tumour outcome (control, treated, inhibition, significance): 3/39 (8%), 0/20 (0%), 100% not significant
Carcinogen: N-METHYL-N'-NITRO-N-NITROSOGUANIDINE, 70-25-7, Dose [Inhibitor]: FOLLOWING 8 WK CARCINOGEN/NACL REGIMEN, RATS FED DIETS SUPPLEMENTED WITH 1% ASPIRIN FOR 32 WK (STUDY DURATION: 40 WK), Route [Inhibitor]: ORAL, Species: RAT, Strain/Sex: WISTAR/MALE, Target Tissue: Type of Lesion: GLANDULAR STOMACH: PRENEOPLASTIC HYPERPLASIA, Dose [Carcinogen]: 100 MG/L IN DRINKING WATER FOR 8 WK, AND SIMULTANEOUSLY FED DIET SUPPLEMENTED WITH 10% NACL, Promoter: SODIUM CHLORIDE, 7647-14-5
  tumour outcome (control, treated, inhibition, significance): 5/39 (13%), 2/20 (10%), 23%, not significant
Carcinogen: N-NITROSOBIS(2-OXOPROPYL)AMINE, 60599-38-4, Dose [Inhibitor]: 0, 1% IN DIET FOR 27 WK BEGINNING POST LAST CARCINOGEN DOSE (STUDY DURATION: 32 WK), Route [Inhibitor]: ORAL, Species: HAMSTER, Strain/Sex: SYRIAN/FEMALE, Target Tissue: Type of Lesion: PANCREAS: ADENOCARCINOMA, Dose [Carcinogen]: 10 MG/KG 1/WK FOR 5 WK, Promoter: NONE USED
  tumour outcome (control, treated, inhibition, significance): 20/28 (71%), 10/19 (53%), 25%, not calculated
Carcinogen: N-NITROSODIETHYLAMINE, 55-18-5, 2-ACETYLAMINOFLUORENE, 53-93-6, CARBON TETRACHLORIDE, 56-23-5, Carcinogen: N-NITROSODIETHYLAMINE, 55-18-5, 2-ACETYLAMINOFLUORENE, 53-93-6, CARBON TETRACHLORIDE, 56-23-5, Dose [Inhibitor]: 0, 0.75% IN DIET FOR 29 WK ADMINISTERED TO RATS BEARING PERSISTENT NODULES FOLLOWING CARCINOGEN TREATMENT (STUDY DURATIO, Route [Inhibitor]: ORAL, Species: RAT, Strain/Sex: F344/MALE, Target Tissue: Type of Lesion: LIVER: HEPATOCELLULAR CARCINOMA, Dose [Carcinogen]: 200 MG/KG BW DEN ONCE, 0.002% 2-AAF IN DIET FOR 2 WK, 1 MG/KG BW CCL4 MIDWAY IN 2-AAF TREATMENT, Dose [Carcinogen]: 200 MG/KG BW DEN ONCE, 0.002% 2-AAF IN DIET FOR 2 WK, 1 MG/KG BW CCL4 MIDWAY IN 2-AAF TREATMENT, Promoter: NONE USED
  tumour outcome (control, treated, inhibition, significance): 7/8 (88%), 5/13 (38%), 57%, not significant
Carcinogen: N-NITROSODIETHYLAMINE, 55-18-5, 2-ACETYLAMINOFLUORENE, 53-93-6, CARBON TETRACHLORIDE, 56-23-5, Carcinogen: N-NITROSODIETHYLAMINE, 55-18-5, 2-ACETYLAMINOFLUORENE, 53-93-6, CARBON TETRACHLORIDE, 56-23-5, Dose [Inhibitor]: 0, 0.75% IN DIET FOR 29 WK ADMINISTERED TO RATS BEARING PERSISTENT NODULES FOLLOWING CARCINOGEN TREATMENT (STUDY DURATIO, Route [Inhibitor]: ORAL, Species: RAT, Strain/Sex: F344/MALE, Target Tissue: Type of Lesion: LIVER: HEPATOCELLULAR CARCINOMA, Dose [Carcinogen]: 200 MG/KG BW DEN ONCE, 0.002% 2-AAF IN DIET FOR 2 WK, 1 ML/KG BW CCL4 MIDWAY IN 2-AAF TREATMENT, Dose [Carcinogen]: 200 MG/KG BW DEN ONCE, 0.002% 2-AAF IN DIET FOR 2 WK, 1 ML/KG BW CCL4 MIDWAY IN 2-AAF TREATMENT, Promoter: PHENOBARBITAL, 50-06-6
  tumour outcome (control, treated, inhibition, significance): 12/12 (100%), 12/14 (86%), 14%, not significant
Carcinogen: N-[4-(5-NITRO-2-FURYL)-2-THIAZOLYL]FORMAMIDE, 24554-26-5, Dose [Inhibitor]: 0.5% IN DIET FOR 2 D PRIOR TO AND FOR 7 D AFTER CARCINOGEN ADMINISTRATION (13 WK TOTAL) FOLLOWED BY 56 WK ON CONTROL DIE, Route [Inhibitor]: ORAL, Species: RAT, Strain/Sex: FISCHER/MALE, Target Tissue: Type of Lesion: URINARY BLADDER: CARCINOMA, Dose [Carcinogen]: 0.2% IN DIET SIMULTANEOUSLY WITH INHIBITOR FOR 12 WK, Promoter: NONE USED
  tumour outcome (control, treated, inhibition, significance): 18/21 (86%), 10/27 (37%), 57%, p<0.001
